Results from patent publication EP0489933A1, “BILE ALCOHOL AND DRUG CONTAINING THE SAME AS ACTIVE INGREDIENT” (TSUMURA CO., LTD., priority 1990, dated 1992).
Like-named read-outs stand apart in the source and are kept apart here.

Experiments:
male mice of ddY line [1] = assay: Survival time under hypoxia (aeration with 96% nitrogen and 4% oxygen); assay type: in vivo; settings: 50 mg/kg, i.p., 60 minutes before aeration with 96% nitrogen and 4% oxygen; time to respiratory arrest
Protocol: In this experiment, 5 to 6-week-old male mice of ddY line (10 individuals per one group) were used after fasting treatment for 24 hours.
Each compound obtained in the present invention was administered intraperitoneally. After 60 minutes of the administration, each mouse was transferred separately into a transparent vessel (capacity, 1,000 ml) equipped with an air exit, and the vessel was aerated with a mixed gas consisting of 96% nitrogen and 4% oxygen at an aeration rate of 5 ℓ/min.
All tested mice died within 180 seconds after the commencement of the gas mixture aeration. Terminal respiration was observed several times prior to the respiratory arrest. Survival time of the control group was roughly in the range of from 96 to 111 seconds.

male mice of ddY line [2] = assay type: in vivo; settings: 50 mg/kg, i.p., 60 minutes before KCN (3.0 mg/kg) tail intravenous injection; for Survival Time ±S.E.: time to respiratory arrest
male mice of ddY line [3] = assay: Blood oxygen and carbon dioxide partial pressure; assay type: in vivo; settings: 20 mg/kg, i.p.; blood from abdominal aorta 60 minutes after administration
Protocol: In this experiment, 4-week-old male mice of ddY line (10 individuals per one group) were used after fasting treatment for 24 hours.
After 60 minutes of the administration of each compound of the present invention, each mouse was subjected to ventrotomy under anesthesia with Nembutal® (Dainabot Co., Ltd.; 50 mg/kg, i.p.) to collect blood from abdominal aorta, and the collected blood sample was immediately checked for its oxygen partial pressure (PO₂) and carbon dioxide partial pressure (PCO₂) using a blood-aerotonometer (Model 170, Ciba-Corning).

[4] = test system: rats of diabetes mellitus; assay: Blood sugar level in streptozotocin-induced diabetes mellitus; assay type: in vivo, male rats of Wistar line; settings: 50 mg/kg, i.o.; administered for 1 week beginning 1 week after streptozotocin (40 mg/kg); serum
Protocol: In this experiment, 8-week-old male rats of Wistar line (5 individuals per one group) were used after rearing them for 1 week with normal feed. Streptozotocin (40 mg/kg) was administered by tail intravenous injection to obtain rats of diabetes mellitus. Beginning after 1 week of the streptozotocin administration, oral administration of each test drug has been carried out for 1 week, followed by 24 hours of fasting. Thereafter, blood sample was collected from lower abdominal vena cava under anesthesia with Nembutal® (1 ml/kg, i.p.). Serum samples were prepared from the thus collected blood samples and checked for their blood sugar levels, with the results shown in Table 9.

male rats of SHR line = assay: Blood pressure in SHR rats; assay type: in vivo; settings: 10 mg/kg, p.o., 2 weeks
Protocol: In this experiment, 12-week-old male rats of SHR line (5 to 6 individuals per one group) were used after rearing them for 1 week with normal feed. Oral administration of each test drug has been carried out for 2 weeks and then blood pressure (mmHg) was measured using a small animal hemomanometer (UR-1000).

erythrocytes = assay: Erythrocyte deformability (filtration through 5 µm filter) after oral administration; assay type: in vivo, male rats of Wistar line; settings: 30 mg/kg, p.o.; blood collected 90 minutes after administration; number of filtered erythrocytes
Protocol: In this experiment, 9-week-old male rats of Wistar line (5 to 6 individuals per one group) were used after rearing them for 1 week with normal feed. After 24 hours of fasting, each test drug was administered orally and, 90 minutes thereafter, blood sample was collected from lower abdominal vena cava of each rat under anesthesia with Nembutal® (1 ml/kg, i.p.). Blood samples obtained in this way were checked for their blood clotting time and erythrocyte deformability.
Measuring procedures are as follows.
Erythrocyte deformability ... The collected blood is extruded from a syringe with a constant flow of He in a holder equipped with a filter (5 µm). Weight of blood and the number of erythrocytes filtered during a fixed time are measured and the deformability is expressed based on the number of filtered erythrocytes. The results of these measurements are shown respectively in Tables 11 and 12.

male SD rats = assay: Thrombus formation in abdominal vena cava; assay type: in vivo; settings: 30 mg/kg, p.o.; dry weight of thrombus
Protocol: Each of male SD rats of 130 to 210 g in body weight was anesthetized with Nembutal® (50 mg/kg, i.p.) and subjected to median incision ventrotomy to release about a 2 cm portion of abdominal vena cava below the renal vein. Blood flow of the thus released vena cava was temporarily stopped for 5 minutes with 8 hemostatic clips. After recirculating blood for 5 minutes by removing the hemostatic clips, […] was ligated at a position just below the renal vein and the median-incised part was sutured. Two hours after the ligature, the thus treated rat was again subjected to ventrotomy to excise abdominal vena cava. The thus excised blood vessel was cut open on a filter paper which had been moistened with physiological saline, in order to take out thrombus. The thrombus thus obtained was washed with physiological saline to remove adhered blood and the like substances and then dried at 80°C for 12 hours or longer to measure its dry weight. In this instance, each drug to be tested was orally administered 90 minutes before the clipping to examine its effect by single administration on the formation of thrombus. Separately from this, each test drug was administered to 6-week-old male SD rat continuously for 7 days, thrombus was prepared in the eighth day in the same manner as described above and dry weight of the thrombus was measured, in order to examine effect of the continuous 7 day administration on the thrombus formation.

[5] = test system: platelet rich plasma (PRP); assay: Platelet aggregation in platelet rich plasma after oral administration; assay type: in vivo, male rat; settings: 30 mg/kg, p.o., blood 90 minutes after administration
Protocol: Each drug to be tested was orally administered to each male rat which has been subjected to fasting treatment for 18 to 24 hours. After 90 minutes of the administration, median incision ventrotomy was carried out under ether anesthesia to collect 9 volumes of blood using a syringe filled with 1 volume of 3.8% sodium citrate solution (3.8% sodium citrate solution:blood = 1:9). After thorough mixing, the thus prepared mixture was centrifuged at 800 rpm for 10 minutes at room temperature to collect the resulting supernatant fluid as platelet rich plasma (PRP). The residual portion was centrifuged at 3,000 rpm for 15 minutes at room temperature to collect the resulting supernatant fluid as platelet poor plasma (PPP). The PRP was diluted with the PPP to adjust the number of platelets to 3×10⁵ ± 2×10⁴ cells/µl. A 450 µl portion of the thus diluted PRP was incubated at 37°C for 3 minutes and then mixed with 50 µl of 1×10⁻⁵ M of ADP or 1×10⁻⁵ g/ml of collagen. Thereafter, platelet aggregation test of the mixture was carried out using an aggregometer by measuring transmittance at 940 nm.

SMILES	Survival Time ±S.E. (male mice of ddY line [1]) [s]	Lethality (%) (male mice of ddY line [2])	Survival Time ±S.E. (male mice of ddY line [2]) [s]	Carbon Dioxide Partial Pressure (male mice of ddY line [3]) [mmHg]	Oxygen Partial Pressure (male mice of ddY line [3]) [mmHg]	Blood Sugar Level ± S.E. [4] [mg/dL]	Blood Pressure ±S.E. Average (male rats of SHR line) [mmHg]	Blood Pressure ±S.E. Maximum (male rats of SHR line) [mmHg]	Erythrocyte Deformation: Erythrocyte counts ±S.E. (erythrocytes) [× 10⁷]	Antithrombotic Effect: Thrombus weight ±S.E. (male SD rats) [mg]	Platelet Aggregation Ratio ±S.E. ([5]; ADP (1×10⁻⁵ M)) [%]	Platelet Aggregation Ratio ±S.E. ([5]; Collagen (1×10⁻⁵ g/ml)) [%]
C[C@H](CCCO)[C@H]1CC[C@H]2[C@@H]3[C@H](O)C[C@@H]4C[C@H](O)CC[C@]4(C)[C@H]3C[C@H](O)[C@]12C [Illustrative Example 6, 3α,7α,12α,24-tetrahydroxy-5β-cholan]	115.4 ± 2.24	80	105.3 ± 6.84	40.1	89.6	159 ± 5.7	148 ± 8.4	187 ± 6.3	3.71 ± 0.48	12.4 ± 2.39	43.5 ± 3.26	47.7 ± 2.58
CC(C)C(O)CC[C@@H](C)[C@H]1CC[C@H]2[C@@H]3[C@H](O)C[C@@H]4C[C@H](O)CC[C@]4(C)[C@H]3C[C@H](O)[C@]12C (stereo partly drawn) [Illustrative Example 5, 3α,7α,12α,24-tetrahydroxy-5β-cholestane]	110.5 ± 6.71	80	101.1 ± 7.8	41.2	88.1	170 ± 7.2	151 ± 4.6	185 ± 7.7	3.51 ± 0.65	13.8 ± 3.77	44.8 ± 3.62	49.9 ± 4.85
C[C@H](CC[C@H](O)CCO)[C@H]1CC[C@H]2[C@@H]3[C@H](O)C[C@@H]4C[C@H](O)CC[C@]4(C)[C@H]3C[C@H](O)[C@]12C [Illustrative Example 3, 27-nor-(24S)-(+)-3α,7α,12α,24,26-pentahydroxy-5β-cholestane]	109.2 ± 4.77	80	97.2 ± 8.51	40.8	89.9	165 ± 6.6	141 ± 3.2	199 ± 2.6	3.81 ± 0.23	12.3 ± 3.55	50.3 ± 1.38	45.5 ± 2.66
C[C@H](CC[C@@H](O)C(CO)CO)[C@H]1CC[C@H]2[C@@H]3[C@H](O)C[C@@H]4C[C@H](O)CC[C@]4(C)[C@H]3C[C@H](O)[C@]12C [Illustrative Example 1, (24R)-(+)-3α,7α,12α,24,26,27-hexahydroxy-5β-cholestane]	155.4 ± 13.2	70	159 ± 10.72	41.3	98.6	177 ± 5.5	139 ± 8.5	205 ± 2.1	3.72 ± 0.55	15.1 ± 1.98	50.3 ± 1.32	43.8 ± 3.99
C[C@H](CC[C@H](O)[C@H](C)CO)[C@H]1CC[C@H]2[C@@H]3[C@H](O)C[C@@H]4C[C@H](O)CC[C@]4(C)[C@H]3C[C@H](O)[C@]12C [Example 10, (24S)-(25R) 3α,7α,12α,24,26-pentahydroxy-5β-cholestane]	125.1 ± 3.89	80	111.1 ± 9.11	42.6	87.5	133 ± 3.8	155 ± 9.5	191 ± 7.2	4.41 ± 0.54	13.8 ± 2.85	42.2 ± 2.33	48.3 ± 1.65
